In patent publication US10213451B2, “Methods and compounds for modulating the secretion or expression of adhesion proteins or angiopoietins of cells” (PACIFIC ARROW LIMITED, priority 2004, dated 2019):

Legend:
Format in all cases: cell-based, human
[1] = test system: Fibronectin secretion from lung carcinoma cells (H460); experiment: Fibronectin secretion (Western blot), H460 cells; details: 10 ug/ml; for inhibition at 10 µg/mL: Homo sapiens, NCI-H460, H460 cells
[2] = test system: Fibronectin secretion from skin SK-Mel-5 cells; experiment: Fibronectin secretion (Western blot), SK-MEL-5 cells; details: 10 ug/ml; for inhibition at 10 µg/mL: Homo sapiens
[3] = test system: Fibronectin secretion from ES2 cells; experiment: Fibronectin secretion (Western blot), ES2 cells; details: 10 ug/ml; for inhibition at 10 µg/mL: Homo sapiens, ES-2, ES2 cells
Method: Inhibition of Fibronectin secretion is physiological and the determination of its quantity is based on the following criteria: • 1. Fibronectin is secreted from viable cells. Only cell with over 85% viable cells after drug-treatment are employed in these experiments. The viable cells were determined by MTT assay. • 2. For comparison, the immuno-band intensity from each samples are normalized with cell mass. The cell mass was determined by the MTT assay and is assigned as a MTT unit for each cell sample.
Cells: ES2 cells were grew in T-25 flask with RPMI 1640 medium over night before drug-treatment. Drug-treatment: cells cultures were replaced with fresh RPMI medium with Xanifolia-Y (10 ug/ml final concentration) or DMSO (as control) at 0 hour. At 1, 2, 4, 8 and 24 hour, aliquot of culture medium was taken out for Fibronectin determination. Fibronectin was determined by Western blot with monoclonal antibody (SIGMA) specific to human Fibronectin only.
Drug-treatment: cells cultures were replaced with fresh RPMI medium containing Xanifolia-Y (10 ug/ml final concentration) or DMSO (as control) at 0 hour. At 4 hours (A) or 8 hour (B), culture medium was replaced with fresh culture medium without drug. At 2, 4, 8 and 24 hour, aliquot of culture medium was taken out for Fibronectin determination. Fibronectin (FN) was determined by Western blot with monoclonal antibody (SIGMA) specific only to human Fibronectin.
Drug-treatment: cells cultures were replaced with fresh RPMI medium containing Xanifolia-Y (10 ug/ml final concentration) or DMSO (as control) at 0 hour. At 2, and 18 hour, aliquot of culture medium was taken out for Fibronectin determination (Western blot method). Cell viability at 18 hours was determined by MTT assay. Cultures were replaced with RPMI medium with MTT and incubated for an hour. The formation of formazan was dissolved in DMSO and OD at 570 nm was measured.
Cells and Drug-treatment: same as previous experiments. After 7 or 24 hours, aliquot of culture medium was taken out for Fibronectin determination (Western blot method). Cell viability at 24 hours was determined by MTT assay.
Cells: ES2 cells were grew in RPMI 1640 medium over night before drug-treatment. Drug-treatment: cells cultures were replaced with fresh RPMI medium containing DMSO (as control) [D]; Xanifolia-Y (10 ug/ml) [Y]; or Paclitaxel 10 or 50 ng/ml [T10, ro T50]. After 24 hours, aliquot of culture medium was taken out for Fibronectin determination (Western blot method). Cell viability at 24 hours was determined by MTT assay.
The amount of Fibronectin secreted by cells into medium was determined by Western blot assay. The amount of Fibronectin secreted per cells basis was determined by dividing the Western-band intensity with the MTT unit.
Western Blot: Spent culture medium (0.6 ml) was mixed with SDS sample buffer (0.2 ml), boiled for 3 minutes before loading to SDS gel. Samples (60 ul/lane) were applied to a 6% SDS gel and electrophoresis was conducted with 100 volts for 2 hours. Protein was transferred to a nitrocellulose paper electrophoretically (30 min at 100 volts). The Western blot was incubated with the first antibody (mouse anti-FN, specific to human FN, SIGMA F0916) and second antibody (Anti-mouse IgG AP conjugated, Promega S3721). The immunobands were developed with BCIP/NBT color development system (Promega S3771).

[4] = test system: Fibronectin secretion from brain glioblastoma T98G cells; experiment: Fibronectin secretion (Western blot), T98G cells; details: 10 ug/ml; for inhibition at 10 µg/mL: Homo sapiens
[5] = test system: Fibronectin secretion from liver HepG2 cells; experiment: Fibronectin secretion (Western blot), HepG2 cells; details: 10 ug/ml; for inhibition at 10 µg/mL: Homo sapiens, HepG2, HepG2 cells
[6] = test system: Fibronectin secretion from bladder carcinoma cells (HTB-9); experiment: Fibronectin secretion (Western blot), HTB-9 cells; details: 10 ug/ml; for inhibition at 10 µg/mL: Homo sapiens

**Q.** How did the “% inhibition of Fibronectin secretion” value ([1]; H460 cells) turn out when `CC=C(C)C(=O)OC1C(OC(=O)c2ccccc2)C(C)(C)CC2C3=CCC4C5(C)CCC(OC6OC(C(=O)OC)C(O)C(OC7OCC(O)C(O)C7O)C6OC6OC(CO)C(O)C(O)C6O)C(C)(C)C5CCC4(C)C3(C)CC(O)C21CO` [Ba4, 3-O-[β-D-galactopyranosyl(1→2)]-β-D-xylopyranosyl (1→3)-β-D-methylglucuronopyranosyl-21-O-benzoyl, 22-O-angeloyl-3β, 15α, 21β, 22α, 28-pentahydroxyolean-12-ene] was run?
**A.** 18%

**Q.** What about the “% inhibition of Fibronectin secretion” value [2] of the same molecule?
**A.** 10%

**Q.** What about the “% inhibition of Fibronectin secretion” value ([3]; ES2 cells) of the same molecule?
**A.** 28%

**Q.** And the “% inhibition of Fibronectin secretion” value [4]?
**A.** 24%

**Q.** And the “% inhibition of Fibronectin secretion” value ([5]; HepG2 cells)?
**A.** 28%

**Q.** What about the “% inhibition of Fibronectin secretion” value [6] of the same molecule?
**A.** 30%

**Q.** Which inhibition at 10 µg/mL [1] does the source give for `C/C=C(/C)C(=O)O[C@H]1[C@H](OC(=O)C(C)C)[C@@]2(CO)C(CC1(C)C)C1=CCC3[C@@]4(C)CC[C@H](O[C@@H]5OC(C(=O)O)[C@@H](O)C(O[C@@H]6O[C@@H](CO)C(O)C6O)C5O[C@@H]5OC(CO)[C@H](O)C(O)C5O)C(C)(C)C4CC[C@@]3(C)[C@]1(C)[C@@H](O)[C@H]2O` (stereo partly drawn) [Xanifolia Y0, 3-O-[β-D-galactopyranosyl(1→2)]-α-L-arabinofuranosyl(1→3)-β-D-glucuronopyranosyl-21-O-angeloyl, 22-O-(2-methylpropanoyl)-3β, 15α, 16α, 21β, 22α, 28-hexahydroxyolean-12-ene] here?
**A.** 22%

**Q.** And the inhibition at 10 µg/mL [2]?
**A.** 27%

**Q.** What about the inhibition at 10 µg/mL [3] of the same molecule?
**A.** 34%

**Q.** And the inhibition at 10 µg/mL [4]?
**A.** 22%

**Q.** And the inhibition at 10 µg/mL [5]?
**A.** 40%

**Q.** What about the inhibition at 10 µg/mL [6] of the same molecule?
**A.** 32%

**Q.** What does the source list for `C/C=C(/C)C(=O)O[C@@H]1C(O)[C@H](O[C@H]2[C@H](OC(C)=O)[C@@]3(CO)C(CC2(C)C)C2=CCC4[C@@]5(C)CC[C@H](O[C@@H]6OC(C(=O)O)[C@@H](O)[C@@H](O[C@@H]7O[C@@H](CO)[C@@H](O)C7O)C6O[C@@H]6OC(CO)[C@H](O)[C@@H](O)C6O)C(C)(C)C5CC[C@@]4(C)[C@]2(C)C[C@H]3O)OC(C)[C@@H]1OC(=O)/C(C)=C\C` (stereo partly drawn) [Xanifolia Y1, 3-O-[β-D-galactopyranosyl (1→2)]-α-L-arabinofuranosyl (1→3)-β-D-glucuronopyranosyl-21-O-(3,4-diangeloyl)-α-L-rhamnophyranosyl-22-O-acetyl-3β,16α, 21β, 22α, 28-pentahydroxyolean-12-ene]?
**A.** inhibition at 10 µg/mL [1]: 13%; inhibition at 10 µg/mL [2]: 10%; inhibition at 10 µg/mL [3]: 41%; inhibition at 10 µg/mL [4]: 40%; inhibition at 10 µg/mL [5]: 33%; inhibition at 10 µg/mL [6]: 50%
